Measurements as given in US20260174786A1, “A NITROGEN-CONTAINING SPIROCYCLIC COMPOUND, PHARMACEUTICAL COMPOSITION AND USE THEREOF” (Prime Gene Therapeutics Co., Ltd., priority 2022, published 2026).

Key:
[1] = Parallel artificial membrane permeability test (Lipid PAMPA); format: in vitro ADME; details: for recovery at 16 h, 10 μM: pH 7.4, test concentration 10 μM, read-out: rate of recovery %; for −LOG Pe / Papp at 16 h, 10 μM: test concentration 10 μM; for Papp at 16 h, 10 μM: pH 7.4, 16 hours, read-out: Effective penetration rate Pe
Method: 1. Preparing the test compound in 10 mM DMSO and diluting 1000 fold to 10 μM with PBS. 2. Ultrasonic treating lecithin in dodecane at a rate of 18 mg/ml. 3. Adding 300 μL/well of 10 μM test compound solution into the donor chamber (bottom) in triplicate. 4. Adding 5 μL/well lecithin/dodecane to the receptor chamber (top), and then adding 300 μL/well PBS (pH=7.4) to the receptor chamber within 10 minutes. 5. Transferring 50 μL of 10 μM test compound onto a sample plate containing 200 μL of cold methanol, with IS * being C0. 6. Inserting the receptor chamber into the donor chamber and incubating at 25° C. for 16 hours. 7. After 16 hours of incubation, transferring 50 μL from the receptor and donor compartments to a sample plate containing 200 μL of cold methanol and IS *. 8. Centrifuging the sample plate at 4° C. and 3220 g for 40 minutes. 9. Transferring 100 μL of supernatant to an analysis plate containing an appropriate volume of H2O for LC-MS/MS analysis. 10. Data analysis.

[2] = target: T1, hTRPV3 (Homo sapiens, UniProt Q8NET8); assay: Whole cell patch clamp inhibition rate test on HEK-293 cells instantaneously expressing TRPV3; format: cell-based; details: HEK293
T1 construct: expressed in transfected cells; host or cells: HEK-293
T1 sequence (Q8NET8 1-790): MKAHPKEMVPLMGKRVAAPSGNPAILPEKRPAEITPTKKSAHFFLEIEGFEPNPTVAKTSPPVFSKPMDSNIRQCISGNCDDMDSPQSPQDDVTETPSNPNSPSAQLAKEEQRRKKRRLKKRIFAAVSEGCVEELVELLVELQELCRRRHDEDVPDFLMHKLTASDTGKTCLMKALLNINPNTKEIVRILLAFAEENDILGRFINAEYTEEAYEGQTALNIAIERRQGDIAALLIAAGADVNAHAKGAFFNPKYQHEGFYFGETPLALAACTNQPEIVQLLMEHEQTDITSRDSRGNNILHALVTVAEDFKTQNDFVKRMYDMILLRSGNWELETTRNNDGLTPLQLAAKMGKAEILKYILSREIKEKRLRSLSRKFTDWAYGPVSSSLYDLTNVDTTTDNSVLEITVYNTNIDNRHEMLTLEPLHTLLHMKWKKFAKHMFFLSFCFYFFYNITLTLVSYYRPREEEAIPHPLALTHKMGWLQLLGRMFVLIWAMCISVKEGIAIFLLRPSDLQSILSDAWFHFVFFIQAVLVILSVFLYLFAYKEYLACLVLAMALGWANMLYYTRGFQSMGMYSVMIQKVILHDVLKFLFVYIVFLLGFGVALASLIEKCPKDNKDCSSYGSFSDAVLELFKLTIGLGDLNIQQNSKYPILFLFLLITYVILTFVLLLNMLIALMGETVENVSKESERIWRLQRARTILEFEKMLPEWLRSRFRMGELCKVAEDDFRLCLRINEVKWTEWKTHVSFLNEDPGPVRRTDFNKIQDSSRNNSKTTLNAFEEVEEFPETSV
In short: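 HEK-293 cells transiently transfected with TRPV3, recorded next-but-one day by whole-cell patch clamp at room temperature: holding −80 mV, ramp −100 to 100 mV over 100 ms every 5 s, peak current monitored. Ascending concentrations perfused, 5 min each; each cell its own control, at least two cells per concentration.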

[3] = hTRPV3, single concentration 0.3 μM

| recovery at 16 h, 10 μM [1] | −LOG Pe [1] | Papp at 16 h, 10 μM [1] | inhibition at 0.3 µM [2, 3] | inhibition at 0.3 µM ([2]; hTRPV3, 0.3 μM) | Compound |
| --- | --- | --- | --- | --- | --- |
| 16.9% | 4.85 | 14.1 ×10⁻⁶ cm/s | 70 to 100% |  | O=C(c1ccc(F)cn1)N1CCC2(CC(O)c3cc(-c4ccccc4C4CC4)ccc32)C1 (stereo not drawn) [Example 15, (5-(2-cyclopropylphenyl)-3-hydroxy-2,3-dihydrospiro[indene-1,3′-pyrrolidine]-1′-yl)(5-fluoropyridin-2-yl) ketone] |
| 18.8% | 4.79 | 16.3 ×10⁻⁶ cm/s | 70 to 100% | 89.6% | O=C(c1ccc(F)cn1)N1CC[C@@]2(C[C@@H](O)c3cc(-c4ccccc4C4CC4)ccc32)C1 [Example 21, ((1S,3R)-5-(2-cyclopropylphenyl)-3-hydroxy-2,3-dihydrospiro[indene-1,3′-pyrrolidine]-1′-yl)(5-fluoropyridin-2-yl)ketone] |
